Test results as given in EP0501354B1, “Anticataract composition” (Senju Pharmaceutical Co., Ltd., priority 1991, dated 1992).

Tests used:
[1] = system: streptozotocin-induced diabetic cataract; experiment: Inhibitory effect on streptozotocin-induced diabetic cataract (slit lamp, rating scale of Sasaki et al.); type: in vivo, male SD rats; details: for time at which cataract scores were reached compared with control group / degree of progression of cataract, time series analysis of variance vs control group: 100 mg/kg/day intraperitoneally once a day for 56 days; for time at which cataract scores were reached compared with control group: rating scale of Sasaki et al. 0-6; for degree of progression of cataract, time series analysis of variance vs control group: scored every seven days; for vacuolation rate (of the eyes): after 7 days, 100 mg/kg/day intraperitoneally once a day, STZ 70 mg/kg i.v. rats, control group 45%
Method: Streptozotocin (hereafter abbreviated as STZ), 70 mg/kg, was administered intravenously to 28 male SD rats aged 4 weeks to induce diabetes. Thereafter, the animals were divided into three groups (two groups consisting of 10 animals each and a group consisting of 8 animals). […] The lens was examined with a slit lamp under mydriasis with Mydrin-P before the beginning of drug administration and every seven days after initiation of administration. The degree of cataract was scored according to the rating scale of Sasaki et al. (Ophthalmic Res. 15: 185-190, 1983) and the anticataract activity of each drug was tested by time series analysis of variance. Body weights were taken on each observation day. […] Rating scale of Sasaki et al. 0: No abnormality. 1: Vacuoles are present in the equator of the lens. 2: Vacuoles spread toward the anterior pole beneath the cortex of the anterior lens capsule. 3: Vacuole begin to merge. 4: The deep layer of the cortex of the anterior lens capsule is cloudy. 5: The central part of the lens is milk white in color. 6: Virtually the entire lens is milk white in color (mature cataract).

[2] = Body weight during treatment of streptozotocin-diabetic rats; type: in vivo, male SD rats; details: 100 mg/kg/day intraperitoneally once a day for 56 days; STZ-diabetic rats
Method: Streptozotocin (hereafter abbreviated as STZ), 70 mg/kg, was administered intravenously to 28 male SD rats aged 4 weeks to induce diabetes. Thereafter, the animals were divided into three groups (two groups consisting of 10 animals each and a group consisting of 8 animals). One group received 2% glutathione (dissolved in physiological saline, hereafter referred to as GSH group), another group S-(diethyl α,β-carboxyethyl)glutathione sodium (dissolved in physiological saline, hereafter referred to as DCE-EtGS group), and a third group physiological saline (hereafter referred to as control group), all intraperitoneally in a volume of 0.5 ml/100 g body weight once a day for 56 days (100 mg/kg/day as active substance). The lens was examined with a slit lamp under mydriasis with Mydrin-P before the beginning of drug administration and every seven days after initiation of administration. The degree of cataract was scored according to the rating scale of Sasaki et al. (Ophthalmic Res. 15: 185-190, 1983) and the anticataract activity of each drug was tested by time series analysis of variance. Body weights were taken on each observation day. Incidentally, blood glucose levels were determined 5 days after administration of STZ and the study was continued only after confirmation of hyperglycemia.

Compound	time at which cataract scores were reached compared with control group [1]	degree of progression of cataract, time series analysis of variance vs control group [1]	vacuolation rate (of the eyes) [1]	Body weight gain vs control group [2]
N[C@@H](CCC(=O)N[C@@H](CS)C(=O)NCC(=O)O)C(=O)O [GSH, glutathione, reference compound]	scores of 5 and 6 were reached later than in the control group	no significant difference from the control group	56.3%	
CCOC(=O)CC(SCC(NC(=O)CCC(N)C(=O)O)C(=O)NCC(=O)O)C(=O)OCC (stereo not drawn) [DCE-EtGS, S-(Diethyl α,β-dicarboxyethyl)glutathione sodium]	scores of 2, 4, 5 and 6 being reached later than in the control group	significant delay of progression	25%	significantly greater
